Test results from ChEMBL document CHEMBL4715697, “Synthesis and biological activity of benzamide DNA minor groove binders” (2016).

Tests used:
Assay type in all cases: functional
HL-60(TB) [1] = assay: Growth inhibition of human HL-60(TB) cells assessed as cell growth at 0.01 uM incubated for 48 hrs by sulforhodamine B assay relative to control; settings: read-out: Activity
NCI-H23 [2] = assay: Growth inhibition of human NCI-H23 cells assessed as cell growth at 0.01 uM incubated for 48 hrs by sulforhodamine B assay relative to control; settings: read-out: Activity
SNB-19 [3] = assay: Growth inhibition of human SNB-19 cells assessed as cell growth at 0.01 uM incubated for 48 hrs by sulforhodamine B assay relative to control; settings: read-out: Activity
U-251 = assay: Growth inhibition of human U-251 cells assessed as cell growth at 0.01 uM incubated for 48 hrs by sulforhodamine B assay relative to control; settings: read-out: Activity
LOX IMVI [4] = assay: Growth inhibition of human LOX IMVI cells assessed as cell growth at 0.01 uM incubated for 48 hrs by sulforhodamine B assay relative to control; settings: read-out: Activity
IGROV-1 = assay: Growth inhibition of human IGROV-1 cells assessed as cell growth at 0.01 uM incubated for 48 hrs by sulforhodamine B assay relative to control; settings: read-out: Activity
A498 = assay: Growth inhibition of human A498 cells assessed as cell growth at 0.01 uM incubated for 48 hrs by sulforhodamine B assay relative to control; settings: read-out: Activity
UO-31 [5] = assay: Growth inhibition of human UO-31 cells assessed as cell growth at 0.01 uM incubated for 48 hrs by sulforhodamine B assay relative to control; settings: read-out: Activity
SR [6] = assay: Growth inhibition of human SR cells assessed as cell growth at 0.1 uM incubated for 48 hrs by sulforhodamine B assay relative to control; settings: read-out: Activity
NCI-H23 [7] = assay: Growth inhibition of human NCI-H23 cells assessed as cell growth at 0.1 uM incubated for 48 hrs by sulforhodamine B assay relative to control; settings: read-out: Activity
HCT-15 [8] = assay: Growth inhibition of human HCT-15 cells assessed as cell growth at 0.1 uM incubated for 48 hrs by sulforhodamine B assay relative to control; settings: read-out: Activity
LOX IMVI [9] = assay: Growth inhibition of human LOX IMVI cells assessed as cell growth at 0.1 uM incubated for 48 hrs by sulforhodamine B assay relative to control; settings: read-out: Activity
SK-OV-3 = assay: Growth inhibition of human SK-OV-3 cells assessed as cell growth at 0.1 uM incubated for 48 hrs by sulforhodamine B assay relative to control; settings: read-out: Activity
HL-60(TB) [10] = assay: Growth inhibition of human HL-60(TB) cells assessed as cell growth at 1 uM incubated for 48 hrs by sulforhodamine B assay relative to control; settings: read-out: Activity
SR [11] = assay: Growth inhibition of human SR cells assessed as cell growth at 1 uM incubated for 48 hrs by sulforhodamine B assay relative to control; settings: read-out: Activity
EKVX = assay: Growth inhibition of human EKVX cells assessed as cell growth at 1 uM incubated for 48 hrs by sulforhodamine B assay relative to control; settings: read-out: Activity
NCI-H23 [12] = assay: Growth inhibition of human NCI-H23 cells assessed as cell growth at 1 uM incubated for 48 hrs by sulforhodamine B assay relative to control; settings: read-out: Activity
NCI-H460 = assay: Growth inhibition of human NCI-H460 cells assessed as cell growth at 1 uM incubated for 48 hrs by sulforhodamine B assay relative to control; settings: read-out: Activity
NCI-H522 = assay: Growth inhibition of human NCI-H522 cells assessed as cell growth at 1 uM incubated for 48 hrs by sulforhodamine B assay relative to control; settings: read-out: Activity
HCT-15 [13] = assay: Growth inhibition of human HCT-15 cells assessed as cell growth at 1 uM incubated for 48 hrs by sulforhodamine B assay relative to control; settings: read-out: Activity
HT-29 = assay: Growth inhibition of human HT-29 cells assessed as cell growth at 1 uM incubated for 48 hrs by sulforhodamine B assay relative to control; settings: read-out: Activity
SNB-19 [14] = assay: Growth inhibition of human SNB-19 cells assessed as cell growth at 1 uM incubated for 48 hrs by sulforhodamine B assay relative to control; settings: read-out: Activity
LOX IMVI [15] = assay: Growth inhibition of human LOX IMVI cells assessed as cell growth at 1 uM incubated for 48 hrs by sulforhodamine B assay relative to control; settings: read-out: Activity
M14 = assay: Growth inhibition of human M14 cells assessed as cell growth at 1 uM incubated for 48 hrs by sulforhodamine B assay relative to control; settings: read-out: Activity
CAKI-1 = assay: Growth inhibition of human CAKI-1 cells assessed as cell growth at 1 uM incubated for 48 hrs by sulforhodamine B assay relative to control; settings: read-out: Activity
Hs-578T [16] = assay: Growth inhibition of human Hs-578T cells assessed as cell growth at 1 uM incubated for 48 hrs by sulforhodamine B assay relative to control; settings: read-out: Activity
T47D = assay: Growth inhibition of human T47D cells assessed as cell growth at 1 uM incubated for 48 hrs by sulforhodamine B assay relative to control; settings: read-out: Activity
SNB-75 = assay: Growth inhibition of human SNB-75 cells assessed as cell growth at 100 uM incubated for 48 hrs by sulforhodamine B assay relative to control; settings: read-out: Activity
SK-MEL-28 = assay: Growth inhibition of human SK-MEL-28 cells assessed as cell growth at 100 uM incubated for 48 hrs by sulforhodamine B assay relative to control; settings: read-out: Activity
SK-MEL-5 = assay: Growth inhibition of human SK-MEL-5 cells assessed as cell growth at 100 uM incubated for 48 hrs by sulforhodamine B assay relative to control; settings: read-out: Activity
OVCAR-5 = assay: Growth inhibition of human OVCAR-5 cells assessed as cell growth at 100 uM incubated for 48 hrs by sulforhodamine B assay relative to control; settings: read-out: Activity
Hs-578T [17] = assay: Growth inhibition of human Hs-578T cells assessed as cell growth at 100 uM incubated for 48 hrs by sulforhodamine B assay relative to control; settings: read-out: Activity
BT-549 = assay: Growth inhibition of human BT-549 cells assessed as cell growth at 100 uM incubated for 48 hrs by sulforhodamine B assay relative to control; settings: read-out: Activity
K562 = assay: Growth inhibition of human K562 cells incubated for 48 hrs by sulforhodamine B assay
MDA-MB-435 = assay: Growth inhibition of human MDA-MB-435 cells incubated for 48 hrs by sulforhodamine B assay
SK-MEL-2 = assay: Growth inhibition of human SK-MEL-2 cells incubated for 48 hrs by sulforhodamine B assay
UO-31 [18] = assay: Growth inhibition of human UO-31 cells incubated for 48 hrs by sulforhodamine B assay
[19] = read-out: LC50 (the source's name)
[20] = read-out: pLC50 (the source's name) (converted)

Work on `CC(=O)Nc1cc(CCl)cc(NC(=O)c2ccc(C(=O)Nc3cccc(NC(=O)CCCN(C)C)c3)cc2)c1` yielded a growth at 0.01 µM (HL-60(TB) [1]) of 86%, a growth at 0.01 µM (NCI-H23 [2]) of 96% and a growth at 0.01 µM (SNB-19 [3]) of 106%. For the same molecule, the growth at 0.01 µM (U-251) was 98%, the growth at 0.01 µM (LOX IMVI [4]) was 96% and the growth at 0.01 µM (IGROV-1) was 113%. The growth at 0.01 µM (A498) was 67%, the growth at 0.01 µM (UO-31 [5]) was 94% and the growth at 0.1 µM (SR [6]) was 107%. For the same molecule, the growth at 0.1 µM (NCI-H23 [7]) was 98%, the growth at 0.1 µM (HCT-15 [8]) was 88% and the growth at 0.1 µM (LOX IMVI [9]) was 92%. It also gave a growth at 0.1 µM (SK-OV-3) of 103%, a growth at 1 µM (HL-60(TB) [10]) of 99% and a growth at 1 µM (SR [11]) of 118%. It also gave a growth at 1 µM (EKVX) of 81%, a growth at 1 µM (NCI-H23 [12]) of 93% and a growth at 1 µM (NCI-H460) of 109%. It also gave a growth at 1 µM (NCI-H522) of 89%, a growth at 1 µM (HCT-15 [13]) of 90% and a growth at 1 µM (HT-29) of 101%. For the same molecule, the growth at 1 µM (SNB-19 [14]) was 104%, the growth at 1 µM (LOX IMVI [15]) was 86% and the growth at 1 µM (M14) was 103%. For the same molecule, the growth at 1 µM (CAKI-1) was 95%, the growth at 1 µM (Hs-578T [16]) was 109% and the growth at 1 µM (T47D) was 94%. The growth at 100 µM (SNB-75) was 97%, the growth at 100 µM (SK-MEL-28) was 92% and the growth at 100 µM (SK-MEL-5) was 75%. For the same molecule, the growth at 100 µM (OVCAR-5) was 91%, the growth at 100 µM (Hs-578T [17]) was 107% and the growth at 100 µM (BT-549) was 94%. For the same molecule, the GI50 (K562; read-out: GI50) was greater than 100 µM, the CC50 (K562; [19]) was greater than 100 µM and the TGI (K562; read-out: TGI) was greater than 100 µM. For the same molecule, the GI50 (K562; read-out: pGI50 (converted)) was greater than 100 µM, the CC50 (K562; [20]) was greater than 100 µM and the TGI (K562; read-out: pTGI) was greater than 100 µM. The GI50 (MDA-MB-435; read-out: GI50) was greater than 100 µM, the LC50 (50% lethal concentration) (MDA-MB-435; read-out: LC50) was greater than 100 µM and the TGI (MDA-MB-435; read-out: TGI) was greater than 100 µM. It also gave a GI50 (MDA-MB-435; read-out: pGI50 (converted)) greater than 100 µM, an LC50 (50% lethal concentration) (MDA-MB-435; read-out: pLC50 (converted)) greater than 100 µM and a TGI (MDA-MB-435; read-out: pTGI) greater than 100 µM. It also gave a GI50 (SK-MEL-2; read-out: GI50) greater than 100 µM, a CC50 (SK-MEL-2; [19]) greater than 100 µM and a TGI (SK-MEL-2; read-out: TGI) greater than 100 µM. It also gave a GI50 (SK-MEL-2; read-out: pGI50 (converted)) greater than 100 µM, a CC50 (SK-MEL-2; [20]) greater than 100 µM and a TGI (SK-MEL-2; read-out: pTGI) greater than 100 µM. It also gave a GI50 (UO-31 [18]; read-out: GI50) greater than 100 µM, a CC50 (UO-31 [18]; [19]) greater than 100 µM and a TGI (UO-31 [18]; read-out: TGI) greater than 100 µM. The GI50 (UO-31 [18]; read-out: pGI50 (converted)) was greater than 100 µM, the CC50 (UO-31 [18]; [20]) was greater than 100 µM and the TGI (UO-31 [18]; read-out: pTGI) was greater than 100 µM.
